Measurements from paper PMC7560827, “Immunodominant proteins P1 and P40/P90 from human pathogen Mycoplasma pneumoniae” (Nature Communications, 2020).

Tests used:
P40/P90N [1] = target: T1, P40/P90N (Mycoplasmoides pneumoniae, UniProt Q50341)
T1 construct: gene orf6

P40/P90N [2] = target: T1, P40/P90N; remark: listed apart in the source

Structure (SMILES) | X-ray crystal structure, 2.8 Å (P40/P90N [1]) [TM0 for the 6SL complex] | X-ray crystal structure, 3.2 Å (P40/P90N [2]) [TLZ for the 3SL complex]
CC(=O)N[C@H]1[C@H]([C@H](O)[C@H](O)CO)O[C@@](OC[C@H]2O[C@@H](O[C@H]3[C@H](O)[C@@H](O)C(O)O[C@@H]3CO)[C@H](O)[C@@H](O)[C@H]2O)(C(=O)O)C[C@@H]1O (some centres unmarked) [6SL] | 6 | 
CC(=O)N[C@H]1[C@H]([C@H](O)[C@H](O)CO)O[C@@](O[C@H]2[C@@H](O)[C@@H](CO)O[C@@H](O[C@H]3[C@H](O)[C@@H](O)C(O)O[C@@H]3CO)[C@@H]2O)(C(=O)O)C[C@@H]1O (some centres unmarked) [3SL] |  | 6
